# Assay results: patent US10588315B2, “Fungicidal compositions” (Syngenta Participations AG, priority 2012, dated 2020)
# “And” between values parts separate entries of the source, which are not always exact repeats. Equal values may be shown once. Read-outs that look alike come from different tables or passages of the source.
# What was measured:
# Format in all cases: cell-based
# Alternaria solani = Alternaria solani / liquid culture; settings: for inhibition at 0.0031 ppm: 1.001 0.0031 ppm
# Method: (§1) Mycelia fragments or conidia suspensions of a fungus, prepared either freshly from liquid cultures of the fungus or from cryogenic storage, were directly mixed into nutrient broth. DMSO solutions of the test compound (max. 10 mg/ml) was diluted with 0.025% Tween20 by factor 50 and 10 μl of this solution was pipetted into a microtiter plate (96-well format). The nutrient broth containing the fungal spores/mycelia fragments was then added to give an end concentration of the tested compound. The test plates were incubated in the dark at 24° C. and 96% rh. The inhibition of fungal growth was determined photometrically and visually after 2-4 days, depending on the pathosystem, and percent antifungal activity relative to the untreated check was calculated.
# (§2) Conidia of the fungus from cryogenic storage were directly mixed into nutrient broth (PDB potato dextrose broth). After placing a (DMSO) solution of test compound into a microtiter plate (96-well format), the nutrient broth containing the fungal spores was added.
# [1] = test system: Botryotinia fuckeliana (Botrytis cinerea); assay: Botryotinia fuckeliana (Botrytis cinerea) / liquid culture
# Method: as §1, with “The nutrient broth containing the fungal spores/mycelia fragments was then added to give an end concentration of the tested compound.” left out
# Conidia of the fungus from cryogenic storage were directly mixed into nutrient broth (Vogels broth). After placing a (DMSO) solution of test compound into a microtiter plate (96-well format), the nutrient broth containing the fungal spores was added.
# Fusarium culmorum = Fusarium culmorum / liquid culture
# Method: as §1, with “The nutrient broth containing the fungal spores/mycelia fragments was then added to give an end concentration of the tested compound.” left out
# as §2
# [2] = test system: Monographella nivalis (Microdochium nivale); assay: Monographella nivalis (Microdochium nivale) / liquid culture; settings: for inhibition at 0.025 ppm: 1.001 0.0250 ppm; for inhibition at 0.05 ppm: 1.001 0.0500 ppm
# Method: as §1, §2
# [3] = test system: Mycosphaerella graminicola (Septoria tritici); assay: Mycosphaerella graminicola (Septoria tritici) / liquid culture; settings: Zymoseptoria tritici, read-out: observed % activity; for inhibition at 0.0031 ppm: 1.001 0.0031 ppm; for inhibition at 0.0016 ppm: 1.001 0.0016 ppm; for inhibition at 0.0008 ppm: 1.001 0.0008 ppm
# Method: as §1, §2
# [4] = test system: Thanatephorus cucumeris (Rhizoctonia solani); assay: Thanatephorus cucumeris (Rhizoctonia solani) / liquid culture; settings: for inhibition at 0.1 ppm: 1.001 0.1000 ppm; for inhibition at 0.05 ppm: 1.001 0.0500 ppm
# Method: as §1
# Mycelia fragments of a newly grown liquid culture of the fungus were directly mixed into nutrient broth (PDB potato dextrose broth). After placing a (DMSO) solution of the test compounds into a microtiter plate (96-well format), the nutrient broth containing the fungal material was added.
# [5] = Monographella nivalis, B1.3, read-out: observed % activity
# [6] = Monographella nivalis, B2.3, read-out: observed % activity
# [7] = Monographella nivalis, B5.4, read-out: observed % activity
# [8] = Thanatephorus cucumeris, B5.5, read-out: observed % activity
smiles,measurement,setting,value
"CON(C(=O)c1cn(C)nc1C(F)F)C(C)Cc1c(Cl)cc(Cl)cc1Cl (centres unmarked) [Compound 1.001, 3-(difluoromethyl)-N-methoxy-1-methyl-N-[1-methyl-2-(2,4,6-trichlorophenyl)ethyl]pyrazole-4-carboxamide]",observed % activity,Alternaria solani; 1.001 0.0004 ppm,11% and 10%
same,observed % activity,Alternaria solani; 1.001 0.0008 ppm,24%
same,observed % activity,Alternaria solani; 1.001 0.0016 ppm,40% and 46%
same,inhibition at 0.0004 ppm,"Alternaria solani; Alternaria solani, 1.001 0.0004 ppm, read-out: observed % activity",9%
same,inhibition at 0.0063 ppm,"Alternaria solani; Alternaria solani, 1.001 0.0063 ppm, read-out: observed % activity",75%
same,inhibition at 0.0008 ppm,"Alternaria solani; Alternaria solani, B1.2, 1.001 0.0008 ppm, read-out: observed % activity",4%
same,inhibition at 0.0016 ppm,"Alternaria solani; Alternaria solani, B1.2, 1.001 0.0016 ppm, read-out: observed % activity",32%
same,inhibition at 0.0031 ppm,"Alternaria solani; Alternaria solani, B1.2, read-out: observed % activity",64%
same,inhibition at 0.0016 ppm,"Alternaria solani; Alternaria solani, B2.2, 1.001 0.0016 ppm, read-out: observed % activity",39%
same,inhibition at 0.0016 ppm,"Alternaria solani; Alternaria solani, B3.2, 1.001 0.0016 ppm, read-out: observed % activity",45%
same,inhibition at 0.0031 ppm,"Alternaria solani; Alternaria solani, B3.2, read-out: observed % activity",66%
same,inhibition at 0.0008 ppm,"Alternaria solani; Alternaria solani, B4.2, 1.001 0.0008 ppm, read-out: observed % activity",29%
same,inhibition at 0.0016 ppm,"Alternaria solani; Alternaria solani, B4.2, 1.001 0.0016 ppm, read-out: observed % activity",47%
same,inhibition at 0.0031 ppm,"Alternaria solani; Alternaria solani, B4.2, read-out: observed % activity",73%
same,inhibition at 0.0008 ppm,"Alternaria solani; Alternaria solani, B5.2, 1.001 0.0008 ppm, read-out: observed % activity",3%
same,inhibition at 0.0016 ppm,"Alternaria solani; Alternaria solani, B5.2, 1.001 0.0016 ppm, read-out: observed % activity",36%
same,inhibition at 0.0031 ppm,"Alternaria solani; Alternaria solani, B5.2, read-out: observed % activity",75%
same,inhibition at 0.0016 ppm,"Alternaria solani; Alternaria solani, B6.2, 1.001 0.0016 ppm, read-out: observed % activity",35%
same,inhibition at 0.0031 ppm,"Alternaria solani; Alternaria solani, B6.2, read-out: observed % activity",71%
same,inhibition at 0.0016 ppm,"Alternaria solani; Alternaria solani, B9.2, 1.001 0.0016 ppm, read-out: observed % activity",37%
same,inhibition at 0.0031 ppm,"Alternaria solani; Alternaria solani, B9.2, read-out: observed % activity",67%
same,observed % activity,[1]; 1.001 0.0031 ppm,76%
same,observed % activity,[1]; 1.001 0.0063 ppm,69% and 63% and 85% and 64% and 88% and 74% and 87%
same,observed % activity,[1]; 1.001 0.0125 ppm,84% and 88%
same,inhibition at 0.0016 ppm,"[1]; Botrytis cinerea, 1.001 0.0016 ppm (Table B55), read-out: observed % activity",38%
same,inhibition at 0.0031 ppm,"[1]; Botrytis cinerea, 1.001 0.0031 ppm (Table B54), read-out: observed % activity",75%
same,inhibition at 0.0031 ppm,"[1]; Botrytis cinerea, 1.001 0.0031 ppm (Table B55), read-out: observed % activity",53%
same,inhibition at 0.0063 ppm,"[1]; Botrytis cinerea, 1.001 0.0063 ppm (Table B54), read-out: observed % activity",89%
same,inhibition at 0.0063 ppm,"[1]; Botrytis cinerea, 1.001 0.0063 ppm (Table B55), read-out: observed % activity",66%
same,inhibition at 0.0125 ppm,"[1]; Botrytis cinerea, 1.001 0.0125 ppm, read-out: observed % activity",83%
same,observed % activity,Fusarium culmorum; 1.001 0.0125 ppm,11% and 16% and 7% and 10% and 6%
same,observed % activity,Fusarium culmorum; 1.001 0.0250 ppm,24% and 28% and 34%
same,observed % activity,Fusarium culmorum; 1.001 0.0500 ppm,46% and 54%
same,observed % activity,Fusarium culmorum; 1.001 0.1000 ppm,50% and 56% and 52% and 57%
same,inhibition at 0.0063 ppm,"Fusarium culmorum; Fusarium culmorum, 1.001 0.0063 ppm, read-out: observed % activity",9%
same,inhibition at 0.05 ppm,"Fusarium culmorum; Fusarium culmorum, 1.001 0.0500 ppm (Table B54), read-out: observed % activity",51%
same,inhibition at 0.05 ppm,"Fusarium culmorum; Fusarium culmorum, 1.001 0.0500 ppm, read-out: observed % activity",49%
same,inhibition at 0.1 ppm,"Fusarium culmorum; Fusarium culmorum, 1.001 0.1000 ppm (Table B54), read-out: observed % activity",55%
same,inhibition at 0.1 ppm,"Fusarium culmorum; Fusarium culmorum, 1.001 0.1000 ppm, read-out: observed % activity",58%
same,inhibition at 0.2 ppm,"Fusarium culmorum; Fusarium culmorum, 1.001 0.2000 ppm (Table B54), read-out: observed % activity",60%
same,inhibition at 0.2 ppm,"Fusarium culmorum; Fusarium culmorum, 1.001 0.2000 ppm, read-out: observed % activity",60%
same,inhibition at 0.025 ppm,"Fusarium culmorum; Fusarium culmorum, B3.3, 1.001 0.0250 ppm, read-out: observed % activity",19%
same,inhibition at 0.05 ppm,"Fusarium culmorum; Fusarium culmorum, B3.3, 1.001 0.0500 ppm, read-out: observed % activity",48%
same,inhibition at 0.1 ppm,"Fusarium culmorum; Fusarium culmorum, B3.3, 1.001 0.1000 ppm, read-out: observed % activity",55%
same,inhibition at 0.2 ppm,"Fusarium culmorum; Fusarium culmorum, B3.3, 1.001 0.2000 ppm, read-out: observed % activity",59%
same,inhibition at 0.025 ppm,"Fusarium culmorum; Fusarium culmorum, B5.3, 1.001 0.0250 ppm, read-out: observed % activity",9%
same,inhibition at 0.05 ppm,"Fusarium culmorum; Fusarium culmorum, B5.3, 1.001 0.0500 ppm, read-out: observed % activity",39%
same,observed % activity,[2]; 1.001 0.0016 ppm,4%
same,observed % activity,[2]; 1.001 0.0031 ppm,10% and 6%
same,observed % activity,[2]; 1.001 0.0125 ppm,4%
same,observed % activity,[2]; 1.001 0.1000 ppm,61%
same,observed % activity,[2]; 1.001 0.2000 ppm,90% and 87% and 79%
same,inhibition at 0.004 ppm,"[2]; Monographella nivalis, 1.001 0.004 ppm, read-out: observed % activity",0%
same,inhibition at 0.1 ppm,"[2]; Monographella nivalis, 1.001 0.1000 ppm (Table B54), read-out: observed % activity",22%
same,inhibition at 0.1 ppm,"[2]; Monographella nivalis, 1.001 0.1000 ppm (Table B55), read-out: observed % activity",19%
same,inhibition at 0.2 ppm,"[2]; Monographella nivalis, 1.001 0.2000 ppm, read-out: observed % activity",85%
same,inhibition at 0.0125 ppm,"[2]; Monographella nivalis, B1.3, 1.001 0.0125 ppm, read-out: observed % activity",0%
same,inhibition at 0.025 ppm,[2]; [5],5%
same,inhibition at 0.05 ppm,[2]; [5],45%
same,inhibition at 0.2 ppm,"[2]; Monographella nivalis, B1.3, 1.001 0.2000 ppm, read-out: observed % activity",78%
same,inhibition at 0.025 ppm,[2]; [6],0%
same,inhibition at 0.05 ppm,[2]; [6],26%
same,inhibition at 0.0008 ppm,"[2]; Monographella nivalis, B3.4, 1.001 0.0008 ppm, read-out: observed % activity",1%
same,inhibition at 0.05 ppm,"[2]; Monographella nivalis, B4.3, read-out: observed % activity",15%
same,inhibition at 0.1 ppm,"[2]; Monographella nivalis, B4.3, 1.001 0.1000 ppm, read-out: observed % activity",64%
same,inhibition at 0.025 ppm,[2]; [7],2%
same,inhibition at 0.05 ppm,[2]; [7],9%
same,inhibition at 0.1 ppm,"[2]; Monographella nivalis, B5.4, 1.001 0.1000 ppm, read-out: observed % activity",60%
same,inhibition at 0.0016 ppm,"[2]; Monographella nivalis, B6.3, 1.001 0.0016 ppm, read-out: observed % activity",0%
same,inhibition at 0.0031 ppm,"[2]; Monographella nivalis, B6.3, 1.001 0.0031 ppm, read-out: observed % activity",3%
same,inhibition at 0.0004 ppm,[3]; 1.001 0.0004 ppm,9%
same,inhibition at 0.0031 ppm,[3],88%
same,inhibition at 0.0016 ppm,[3]; B1.5,52%
same,inhibition at 0.0016 ppm,[3]; B3.5,42%
same,inhibition at 0.0031 ppm,[3]; B3.5,83%
same,inhibition at 0.0008 ppm,[3]; B5.6,27%
same,inhibition at 0.0016 ppm,[3]; B5.6,45%
same,inhibition at 0.0031 ppm,[3]; B5.6,82%
same,inhibition at 0.0008 ppm,[3]; B6.4,11%
same,inhibition at 0.0016 ppm,[3]; B6.4,53%
same,inhibition at 0.0031 ppm,[3]; B6.4,89%
same,observed % activity,[4]; 1.001 0.0250 ppm,8%
same,inhibition at 0.0031 ppm,"[4]; Thanatephorus cucumeris, 1.001 0.0031 ppm, read-out: observed % activity",5%
same,inhibition at 0.0063 ppm,"[4]; Thanatephorus cucumeris, 1.001 0.0063 ppm, read-out: observed % activity",0%
same,inhibition at 0.0125 ppm,"[4]; Thanatephorus cucumeris, B1.4, 1.001 0.0125 ppm, read-out: observed % activity",0%
same,inhibition at 0.025 ppm,"[4]; Thanatephorus cucumeris, B1.4, 1.001 0.0250 ppm, read-out: observed % activity",6%
same,inhibition at 0.1 ppm,"[4]; Thanatephorus cucumeris, B1.4, read-out: observed % activity",0%
same,inhibition at 0.025 ppm,"[4]; Thanatephorus cucumeris, B5.5, 1.001 0.0250 ppm, read-out: observed % activity",13%
same,inhibition at 0.05 ppm,[4]; [8],1%
same,inhibition at 0.1 ppm,[4]; [8],17%
same,inhibition at 0.05 ppm,"[4]; Thanatephorus cucumeris, B9.3, read-out: observed % activity",0%
same,inhibition at 0.2 ppm,"[4]; Thanatephorus cucumeris, B9.3, 1.001 0.2000 ppm, read-out: observed % activity",6%
